Laboratory results published in patent publication US11771692B2, “N-hydroxyethyl didehydroazapodophyllotoxins as GBP1 inhibitors and methods of overcoming treatment resistance in cancer” (The Board of Trustees of the Leland Stanford Junior …, priority 2018, dated 2023).

What was measured:
GBP1 = assay: cell-based reporter assay, OVCAR-8 stably transfected with GBP-1-luciferase; conditions: OVCAR-8 GBP-1-luciferase
From the text: Exemplary compounds (1)-(17) and previously identified compound SU093 (Andreoli, M., Persico, M.; Kumar, A.; Orteca, N.; Kumar, V.; Pepe, A.; Mahalingam, S.; Alegria, A. E.; Petrella, L.; Sevciunaite, L.; Camperchioli, A.; Mariani, M.; Di Dato, A.; Novellino, E.; Scambia, G., Malhotra, S. V.; Ferlini, C.; Fattorusso, C., Identification of the First Inhibitor of the GBP1:PIM1 Interaction. Implications for the Development of a New Class of Anticancer Agents against Paclitaxel Resistant Cancer Cells. Journal of Medicinal Chemistry 2014, 57 (19), 7916-7932) were tested for GBP1 inhibition using a cell-based reporter assay in ovarian cancer cell line OVCAR-8 stably transfected with GBP-1-luciferase. Tables 1 and 2 below outlines the percentage of GBP1 expression in OVCAR-8 cells for each of the 17 compounds tested.

ID-8 tumor xenograft = assay: Ovarian ID-8 tumor xenograft in C57BL6 mice; type: in vivo; conditions: ID-8, 20 mg/kg IP daily
From the text: An immunocompetent syngeneic mouse model was used to evaluate in vivo antitumor effect of SU093 and SU056 (also referred to herein as Compound (I)) for ovarian cancer. C57BL6 female mice (n=5/group) were subcutaneously injected in the right flank with 5×10^6 ID-8 cells mixed with matrigel. From the day following xenograft implantation, mice were monitored regularly for tumor growth and once the tumors reached approximately 100 mm^3, the mice were randomly divided into three groups and respective treatments were given.
Group I (vehicle control): 100 μl of 10% PEG300 (w/v) in saline;
Group II: mice treated with SU093 (20 mg/kg); and
Group III: mice treated with SU056 (20 mg/kg).
Doses were administered intraperitoneally (IP) for 7 days/week for 42 days and the mice were sacrificed on day 43. Tumor sizes were measured twice weekly using digital caliper and tumor volume was calculated by the formula: 0.5236 L1 (L2)^2, where L1 is long diameter, and L2 is short diameter.

SCC-90 tumor xenograft = assay: Head and neck SCC-90 tumor xenograft in nude mice; type: in vivo; conditions: SCC-90, nude mice
Protocol: An immunodeficient nude mice model was also used to study the in vivo potential of SU093 and SU056 for head and neck cancer. Nude mice (n=3/group) were subcutaneously injected in the right flank with 5×10^6 SCC-90 cells mixed with matrigel and observed regularly until the tumor size reached about 200 mm^3. The treatment regime with drugs including dose, formulation and route of delivery was similar to ovarian cancer study discussed above. Doses of SU093 and SU056 were administered daily until 35 days and mice were sacrificed thereafter. […] At the end of 35 days, calculated tumor volume/mouse was 860.33±21.78 mm^3, 694.67±14.64 mm^3, and 435.00±10.81 mm^3 for control, SU093 and SU056 treatment groups, respectively. This equates to a 20% and 50% reduction in tumor volume for SU093 and SU056 treatment groups, respectively. A decrease in tumor weight of about 21% (P value not significant) and 54% (P<0.002) was also observed for the SU093 and SU56 treatment groups, respectively.

## O=C1OCC2=C1C(c1cccc(F)c1)c1cc3c(cc1N2CCO)OCO3 (centres unmarked) [SU056]
GBP1; 5 nM
  % GBP1 expression OVCAR-8 @5 nM: 54.16%
GBP1; 10 nM
  % GBP1 expression OVCAR-8 @10 nM: 43.36%
ID-8 tumor xenograft; 42 days, vs control
  reduction in tumor volume: 49.55%
  tumor weight decreased: 53.44%
ID-8 tumor xenograft; end of 6 weeks
  tumor volume/mouse: 257.39±21.6 mm^3
SCC-90 tumor xenograft; 20 mg/kg IP daily, end of 35 days
  tumor volume/mouse: 435.00±10.81 mm^3
SCC-90 tumor xenograft; 35 days, vs control
  decrease in tumor weight: ~54%
  reduction in tumor volume: 50%
